Assay results reported in ChEMBL document CHEMBL1139619, “Exploiting a basic chemosensitizing pharmacophore hypothesis. Part 1: synthesis and biological evaluation of novel arylbromide and bicyclic chemosensitizers against drug-resistant malaria parasites” (Bioorg Med Chem Lett, 2005).
Converted amounts (≈) assume the structure as drawn. “And” between values parts separate entries of the source, which are not always exact repeats. Equal values may be shown once. One block for each compound: values may come before it.

Key:
[1] = test system: Plasmodium falciparum; assay: (§1) In vitro inhibitory concentration against Plasmodium falciparum FCM29; type: functional
[2] = test system: Plasmodium falciparum; assay: (§2) In vitro inhibitory concentration against chloroquine-enhancing Plasmodium falciparum FCM29 at 0.6 ug/mL; type: functional
[3] = test system: Plasmodium falciparum; assay: In vitro inhibition against Plasmodium falciparum FCM29 at 0.3 ug/mL; type: functional, organism-based
[4] = test system: Plasmodium falciparum; assay: as §1; type: functional, organism-based
[5] = test system: Plasmodium falciparum; assay: In vitro inhibitory concentration against Plasmodium falciparum FCM29 at 0.3 ug/mL; type: functional
[6] = test system: Plasmodium falciparum; assay: as §2; type: functional, organism-based
[7] = test system: Plasmodium falciparum; assay: (§3) In vitro inhibitory concentration against chloroquine-enhancing Plasmodium falciparum FCM29 at 1.36 ug/mL; type: functional
[8] = test system: Plasmodium falciparum; assay: as §3; type: functional, organism-based
[9] = test system: Plasmodium falciparum; assay: In vitro inhibition against Plasmodium falciparum FCM29 at 0.68 ug/mL; type: functional, organism-based
[10] = test system: Plasmodium falciparum; assay: In vitro inhibitory concentration against Plasmodium falciparum FCM29 at 0.68 ug/mL; type: functional
[11] = test system: Plasmodium falciparum; assay: In vitro inhibition against Plasmodium falciparum FCM29 at 2 ug/mL; type: functional, organism-based
[12] = test system: Plasmodium falciparum; assay: In vitro inhibitory concentration against Plasmodium falciparum FCM29 at 2 ug/mL; type: functional
[13] = test system: Plasmodium falciparum; assay: (§4) In vitro inhibitory concentration against chloroquine-enhancing Plasmodium falciparum FCM29 at 0.5 ug/mL; type: functional
[14] = test system: Plasmodium falciparum; assay: (§5) In vitro inhibitory concentration against chloroquine-enhancing Plasmodium falciparum FCM29 at 2 ug/mL; type: functional, organism-based
[15] = test system: Plasmodium falciparum; assay: as §4; type: functional, organism-based
[16] = test system: Plasmodium falciparum; assay: as §5; type: functional
[17] = test system: Plasmodium falciparum; assay: (§6) In vitro inhibitory concentration against Plasmodium falciparum FCM29 at 1 ug/mL; type: functional
[18] = test system: Plasmodium falciparum; assay: In vitro inhibition against Plasmodium falciparum FCM29 at 4 ug/mL; type: functional, organism-based
[19] = test system: Plasmodium falciparum; assay: In vitro inhibitory concentration against Plasmodium falciparum FCM29 at 4 ug/mL; type: functional
[20] = test system: Plasmodium falciparum; assay: as §6; type: functional, organism-based
[21] = test system: Plasmodium falciparum; assay: In vitro inhibitory concentration against chloroquine-enhancing Plasmodium falciparum FCM29 at 0.75 ug/mL; type: functional
[22] = test system: Plasmodium falciparum; assay: In vitro inhibitory concentration chloroquine-enhancing against chloroquine-enhancing Plasmodium falciparum FCM29 at 0.75 ug/mL; type: functional, organism-based
[23] = test system: Plasmodium falciparum; assay: (§7) In vitro inhibitory concentration against chloroquine-enhancing Plasmodium falciparum FCM29 at 1.5 ug/mL; type: functional, organism-based
[24] = test system: Plasmodium falciparum; assay: In vitro inhibitory concentration against Plasmodium falciparum FCM29 at 1.5 ug/mL; type: functional
[25] = test system: Plasmodium falciparum; assay: In vitro inhibitory concentration chloroquine-enhancing against Plasmodium falciparum FCM29 at 0.375 ug/mL; type: functional
[26] = test system: Plasmodium falciparum; assay: In vitro inhibitory concentration against Plasmodium falciparum FCM29 at 0.62 ug/mL; type: functional
[27] = test system: Plasmodium falciparum; assay: In vitro inhibitory concentration against chloroquine-enhancing Plasmodium falciparum FCM29 at.62 ug/mL; type: functional, organism-based
[28] = test system: Plasmodium falciparum; assay: (§8) In vitro inhibitory concentration against chloroquine-enhancing Plasmodium falciparum FCM29 at 1.25 ug/mL; type: functional, organism-based
[29] = test system: Plasmodium falciparum; assay: In vitro inhibitory concentration against chloroquine-enhancing Plasmodium falciparum FCM29 at2.50 ug/mL; type: functional
[30] = test system: Plasmodium falciparum; assay: as §8; type: functional
[31] = test system: Plasmodium falciparum; assay: In vitro inhibitory concentration against chloroquine-enhancing Plasmodium falciparum FCM29 at 2.50 ug/mL; type: functional, organism-based
[32] = test system: Plasmodium falciparum; assay: (§9) In vitro inhibitory concentration against chloroquine-enhancing Plasmodium falciparum FCM29 at 3 ug/mL; type: functional, organism-based
[33] = test system: Plasmodium falciparum; assay: as §7; type: functional
[34] = test system: Plasmodium falciparum; assay: as §9; type: functional
[35] = test system: Plasmodium falciparum; assay: In vitro inhibition against Plasmodium falciparum FCM29 at 3 ug/mL; type: functional, organism-based
[36] = test system: Plasmodium falciparum; assay: In vitro inhibitory concentration against Plasmodium falciparum FCM29 at 3 ug/mL; type: functional
[37] = test system: Plasmodium falciparum; assay: (§10) In vitro inhibitory concentration against chloroquine-enhancing Plasmodium falciparum FCM29 at 5 ug/mL; type: functional
[38] = test system: Plasmodium falciparum; assay: (§11) In vitro inhibitory concentration against chloroquine-enhancing Plasmodium falciparum FCM29 at 2.5 ug/mL; type: functional
[39] = test system: Plasmodium falciparum; assay: as §11; type: functional, organism-based
[40] = test system: Plasmodium falciparum; assay: as §10; type: functional, organism-based
[41] = test system: Plasmodium falciparum; assay: In vitro inhibition against Plasmodium falciparum FCM29 at 0.62 ug/mL; type: functional, organism-based
[42] = test system: Plasmodium falciparum; assay: In vitro inhibitory concentration against Plasmodium falciparum FCM29 @ concentration of 0.5 ug/mL; type: functional
[43] = In vitro inhibitory concentration against chloroquine-enhancing Plasmodium falciparum FCM29 @ concentration of 00 ug/mL; type: functional
[44] = (§12) In vitro inhibitory concentration against Plasmodium falciparum FCM29 @ concentration of 00 ug/mL; type: functional
[45] = In vitro inhibitory concentration against chloroquine-enhancing Plasmodium falciparum FCM29 @ concentration of 1 ug/mL; type: functional
[46] = test system: Plasmodium falciparum; assay: as §12; type: functional

SMILES: CCN(CC)CCCOc1cccc(-c2ccccc2)c1
IC90 [1]: 49.5 µg/mL (≈ 175 µM)
IC50 [11]: 70.9 nM
IC90 [12]: 205 nM
IC90 [13]: 736 nM
IC50 [14]: 77.7 nM
IC50 [15]: 152 nM
IC90 [16]: 556 nM
IC90 [17]: 255 nM and 745 nM
IC50 [18]: 3.1 nM
IC50 [4]: 3.1 µg/mL (≈ 10.9 µM)
IC90 [19]: 73.2 nM
IC50 [20]: 119 nM
IC50 ([20]; Plasmodium falciparum): 101 nM

SMILES: CCN(CC)CCCNc1ccccc1-c1ccccc1
IC90 [1]: 94.6 µg/mL (≈ 335 µM)
IC90 [26]: 820 nM
IC50 [27]: 138 nM
IC50 [28]: 72.2 nM
IC50 [4]: 3.1 µg/mL (≈ 11 µM)
IC90 [29]: 373 nM
IC90 [30]: 400 nM
IC50 [31]: 11.5 nM

SMILES: CCN(CC)CCCOc1ccccc1-c1ccccc1
IC50 [32]: 3 nM
IC90 [1]: 22.3 µg/mL (≈ 78.7 µM)
IC50 [14]: 7.6 nM
IC90 [16]: 191 nM
IC90 ([17]; Plasmodium falciparum): 534 nM
IC50 [23]: 42.9 nM
IC50 [4]: 3.3 µg/mL (≈ 11.6 µM)
IC90 [33]: 301 nM
IC90 [34]: 157 nM
IC50 ([20]; Plasmodium falciparum): 53.9 nM

SMILES: CCN(CC)CCCNc1ccccc1Br
IC50 [11]: 28.8 nM
IC90 [12]: 134 nM
IC50 [35]: 6.1 nM
IC90 ([17]; Plasmodium falciparum): 290 nM
IC50 [23]: 40.3 nM
IC50 [4]: 3.7 µg/mL (≈ 13 µM)
IC90 [36]: 153 nM
IC90 [33]: 195 nM
IC50 ([20]; Plasmodium falciparum): 58.2 nM

SMILES: CCN(CC)CCCNc1cccc(Br)c1
IC90 [1]: 80.3 µg/mL (≈ 282 µM)
IC90 [37]: 210 nM
IC90 [38]: 443 nM
IC90 [26]: 809 nM
IC50 [39]: 38.5 nM
IC50 [40]: 7.2 nM
IC50 [41]: 110 nM
IC50 [28]: 68.5 nM
IC50 [4]: 7.6 µg/mL (≈ 26.6 µM)
IC90 [30]: 392 nM

SMILES: CCN(CC)CCCNc1ccc(Br)cc1
IC90 [1]: 66.7 µg/mL (≈ 234 µM)
IC50 [11]: 69.3 nM
IC90 [12]: 272 nM
IC90 [13]: 745 nM
IC90 [42]: 745 nM
IC50 [15]: 146 nM
IC50 [43]: 161 nM
IC50 [44]: 161 nM
IC50 [18]: 28.7 nM
IC50 [4]: 6.1 µg/mL (≈ 21.4 µM)
IC90 [19]: 273 nM
IC50 [45]: 95.9 nM
IC90 [46]: 843 nM

Next, values leading:

IC90 [1]: 24.4 µg/mL (≈ 86.1 µM)
IC90 [2]: 311 nM
IC50 [3]: 169 nM
IC50 [4]: 1.7 µg/mL (≈ 6 µM)
IC90 [5]: 655 nM
IC50 [6]: 101 nM
SMILES: CCN(CC)CCCOc1ccc(-c2ccccc2)cc1

IC90 [7]: 630 nM
IC90 [1]: 20.8 µg/mL (≈ 73.6 µM)
IC50 [8]: 109 nM
IC50 [4]: 2.3 µg/mL (≈ 8.14 µM)
IC50 [9]: 160 nM
IC90 [10]: 781 nM
SMILES: CCN(CC)CCCNc1cccc(-c2ccccc2)c1

IC90 [1]: 18.5 µg/mL (≈ 65.5 µM)
IC90 [21]: 198 nM
IC50 [22]: 54 nM
IC50 [23]: 25.9 nM
IC50 [4]: 2.9 µg/mL (≈ 10.3 µM)
IC90 [24]: 114 nM
IC90 [25]: 98.2 nM and 368 nM
SMILES: CCN(CC)CCCNc1ccc(-c2ccccc2)cc1
